We go through 2 compounds from US20200281243A1, “DIETARY PRODUCT” (CANCER RESEARCH TECHNOLOGY LTD, priority 2017, published 2020).

Test [1] concerns 4T1 cells. Briefly: Matrigel invasion assay, parental 4T1 cells. The settings on record: media supplemented with asparagine (100× of 1×NEAA, 2 days), 24 h matrigel invasion. The format is cell-based, mouse. As for the experimental part:
(§1) The in vitro invasive capacity of cells was measured using 6-well BioCoat Matrigel invasion plates. For parental 4T1 cells, 1×10^6 cells were plated on individual wells, for 4T1-T cells, 8×10^5 cells were plated on individual wells and for MDA-MB-231 cells, 5×10^5 cells were used per individual well. Cells were resuspended in media without serum and cells invaded into media with 5% fetal bovine serum and 5% fetal calf serum. For FIG. 3b and FIG. 9e, 4T1 and MDA-MB-231 cells were cultured in media containing 100× concentration of the specified amino acid (relative to the concentration in 1×NEAA) for 2 days or 3 days, respectively, before starting the invasion assay. After 24 h, non-invaded cells were removed and the invasion wells were washed in PBS, fixed in 2% glutalaldehyde for 2 min and stained with 0.5% crystal violet for 10 min. The wells were washed in distilled H2O, air-dried and scanned using the Odyssey infrared scanner. The signal was quantified using ImageJ (NIH).

For test [2], the system named is 4T1 cells. Briefly: CellTrace Violet proliferation assay, parental 4T1 cells. The class given is cell-based, mouse. As to conditions: asparagine supplementation, 24 hours. As for the experimental part: (§2) For the mCherry competition assay, shRNA-transduced mCherry-positive cells were admixed with untransduced cells. mCherry fluorescence was quantified on the LSR II flow cytometer (BD Biosciences). The proliferation assay was carried out using the CellTrace Violet Cell Proliferation Kit (Thermo Fisher Scientific). For FIG. 3b and FIG. 9e, 4T1 and MDA-MB-231 cells were cultured in media containing 100× concentration of the specified amino acid (relative to the concentration in 1×NEAA) for 2 days or 3 days, respectively, before starting the proliferation assay. Cells were stained with CellTrace violet and then trypsinized and re-suspended in media. After 24 hours, cells were collected in order to quantify violet fluorescence intensity using the SH800 flow cytometer (Sony).

The next test relates to MDA-MB-231 cells. Briefly: CellTrace Violet proliferation assay, MDA-MB-231 cells. The format is cell-based, human. As to conditions: asparagine supplementation, 24 hours. The method, then:
as §2

For test [3], the system named is Asns-silenced 4T1-T cells. Briefly: Matrigel invasion assay, Asns-silenced cells. The class given is cell-based, mouse. As to conditions: media supplemented with asparagine. The method, then: as §1
The test system of test [4] is Asns-silenced 4T1-T cells. Briefly: mCherry competition assay, Asns-silenced cells. The format is cell-based, mouse. As to conditions: media supplemented with asparagine. As for the experimental part: as §2
Another test relates to EMT-up proteins. The test can be described thus: iTRAQ proteomic profiling of EMT-up proteins. The format is cell-based, mouse. As to conditions: parental 4T1 cells; media supplemented with asparagine. From the text: Cells were washed in ice cold PBS and harvested for iTRAQ quantitative proteomics as previously described in Ross et al. 2004. Three replicates were utilized for each cell line.

In another test the test system is EMT-up genes. The test can be described thus: RNAseq of EMT-up genes. The class given is cell-based, mouse. The settings on record: parental 4T1 cells grown in asparagine supplemented media.
In a further test the test system is parental 4T1 cells. The test can be described thus: Orthotopic injection of parental 4T1 cells into NSG mice. The class given is in vivo, mouse. The settings on record: parental 4T1 orthotopic, 60U L-asparaginase 5 times per week for 19 days vs PBS. As for the experimental part:
(§3) All mouse experiments were approved by the Cold Spring Harbor Animal Care and Use Committee. The maximal permitted tumour size of 20 mm in any direction was never exceeded. All mouse injections were carried out with 6-8-week-old female NOD-SCID-112rg^−/− (NSG) mice (JAX). Balb/c mice were not used in this study as the different clonal cell lines have variable GFP levels due to the lentiviral barcode vector. Tail vein injections were carried out using 5×10^5 mouse mammary tumor cells, which were re-suspended in 100 ul of PBS and injected via tail vein. Orthotopic injections were performed using 1×10^5 mouse mammary tumor cells or 5×10^5 MDA-MB-231 cells. For this, cells were re-suspended in a 1:1 mix of PBS and growth factor reduced Matrigel (BD Biosciences). A volume of 20 ul was injected into the mammary gland #4 for mouse mammary tumor cells and a volume of 40 ul was injected for MDA-MB-231 cells. Primary tumor volume was measured using the formula V=½(L×W^2), where L is length and W is width of the primary tumor. For L-asparaginase studies, mice were administered 200 ul of 60U of L asparaginase 5× per week through intraperitoneal injections. […]
(§4) For each lung, five-micron sections were prepared and stained with a standard H&E protocol. Lung metastatic burden was determined by counting individual lung nodules on one section.

For another test, the system named is 4T1-T cells. The test can be described thus: Orthotopic injection of Asns-silenced or -expressing 4T1-T cells into NSG mice. The class given is in vivo, mouse. The settings on record: Asns-silenced 4T1 cells orthotopic; L-asparaginase treated mice. As for the experimental part:
as §3, §4

The nature of test [5]: Free amino acid quantification in blood serum using HPLC. As to conditions: NSG mice; 60U L-asparaginase 5 times per week for 19 days. The format is in vivo, mouse. As for the experimental part: as §3, with “tumor.” for “tumor. For L-asparaginase studies, mice were administered 200 ul of 60U of L asparaginase 5× per week through intraperitoneal injections.”
Free amino acids were quantified in cultured cells and blood serum. […] Each sample was quantified in triplicates using High Performance Liquid Chromatography (HPLC) and a flourometric detector. For each replicate, nanomoles of each amino acid was measured. […]

The nature of test [6]: Metabolite profiling of mammary gland, serum and lungs by LC-MS/MS. The class given is in vivo, mouse. The settings on record: L-asparaginase treated animals. The method, then:
as §3, with “tumor.” for “tumor. For L-asparaginase studies, mice were administered 200 ul of 60U of L asparaginase 5× per week through intraperitoneal injections.”
Dried-down extracts were re-suspended in 25 ul HPLC-grade water, and 1 ul was analyzed using hydrophilic interaction chromatography (HILIC) coupled to tandem mass spectrometry analysis (LC-MS/MS). […] Metabolite differences were analyzed by normalizing samples to total peak area and comparing replicates for each group using one-way ANOVA with multiple comparisons.

For a further test, the system named is Twist1 and E-cadherin. Briefly: IHC staining for Twist1 and E-cadherin in primary tumours. As to conditions: primary tumours of mice treated with L-asparaginase. The format is in vivo, mouse. As for the experimental part:
as §3, with “A volume of 20 ul was injected into the mammary gland #4 for mouse mammary tumor cells and a volume of 40 ul was injected for MDA-MB-231 cells.” left out, “tumor.” for “tumor. For L-asparaginase studies, mice were administered 200 ul of 60U of L asparaginase 5× per week through intraperitoneal injections.”
For immunohistochemistry, primary tumors and lungs were processed as previously described in Wagenblast et al. 2015. […] Ecadherin and Twist1 diaminobenzidine-stained (DAB) and hematoxylin stainings were quantified using ImageJ (NIH). For this, images were color deconvoluted according to Ruifrok et al. 2001 and the percent area of E-cadherin and Twist1 positive staining was measured.

A further test concerns solid tumours. The settings on record: Tallal et al. 1970; cited from earlier work.

For the compound `NC(=O)C[C@H](N)C(=O)O` [asparagine], the increase in invasiveness result in the test with 4T1 cells [1] is on record as “approximately 2 fold”. Besides, the growth result in the test on 4T1 cells [2] and with MDA-MB-231 cells was “not impacted” in each case. In [3], the capacity to invade result was “increased”. For the same compound, the capacity to grow result in test [4] is on record as “increased”. Moreover, the “expression of EMT-up proteins” value with EMT-up proteins was “increased in expression”. In addition, in the test on EMT-up genes, the “mRNA levels of EMT-up genes” value was “increased”.

For L-asparaginase, the primary tumour volumes entry in the test on parental 4T1 cells is reported as “no significant difference”. Besides, the metastatic burden result in the test on parental 4T1 cells (lung) is “significant reduction”. Further, in the test with 4T1-T cells, the primary tumour volume result is recorded as “reduction” and the resultant metastases was “nearly undetectable”. In addition, the “serum asparagine (HPLC)” value in [5] is given as “undetectable”. The “asparagine in the serum (mass spectrometry)” value in [6] is on record as “nearly undetectable”. Also, in the test with Twist1 and E-cadherin, the “Twist1 and E-cadherin expression (IHC)” value is “significant expression change”. Further, in the test with solid tumours, the treating solid tumours result was “ineffective”.
